Results on 28 compounds are retold here after patent US8420657B2 (Novartis AG, priority 2008, dated 2013).

The test system of assay [1] is JAK1/JAK2-dependent nuclear translocation of STAT1-GFP in HT1080 fibrosarcoma cells. The assay is described as follows: STAT1 nuclear translocation assay (Cellomics), IFN-γ stimulated HT1080 STAT1-GFP cells. In kind it is cell-based. The settings on record: Homo sapiens, HT-1080, STAT1 translocation pathway. In a few lines:
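HT1080 cells stably expressing STAT1-GFP, pre-treated 30 min with compound (10 μM–0.003 μM, 0.1% DMSO), then stimulated 2 h with 100 ng/ml IFN-γ, fixed and Hoechst-stained. Nuclear-cytoplasmic GFP differential imaged over ≥1000 cells/well, normalised to unstimulated and DMSO-stimulated wells for IC50.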

A further assay has as its target T1, GST-JAK2(808-1132) (Homo sapiens, UniProt O60674).
T1 construct: GST-JAK2(808-1132); purchased Invitrogen (Carlsbad, USA) #4288
The assay is described as follows: JAK2 kinase assay (Caliper mobility shift, LabChip 3000). It is filed as biochemical. The essentials:
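Recombinant GST-JAK2(808-1132) kinase domain with FITC-labelled JAK3tide peptide substrate and ATP; 60 min at 30 °C, EDTA stop. Substrate/product ratio read by microfluidic mobility shift; compounds at 8 final concentrations, 10 to 0.003 μM.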

T1 sequence (O60674 808-1132): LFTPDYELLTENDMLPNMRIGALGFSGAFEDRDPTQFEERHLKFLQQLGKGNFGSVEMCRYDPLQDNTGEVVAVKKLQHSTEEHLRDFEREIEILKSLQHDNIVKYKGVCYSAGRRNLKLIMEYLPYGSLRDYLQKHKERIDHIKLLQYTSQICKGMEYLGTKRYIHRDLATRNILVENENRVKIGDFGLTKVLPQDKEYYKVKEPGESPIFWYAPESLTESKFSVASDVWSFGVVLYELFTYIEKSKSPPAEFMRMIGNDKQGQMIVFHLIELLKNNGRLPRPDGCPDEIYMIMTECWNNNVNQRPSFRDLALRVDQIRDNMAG

The term IC50 denotes the point on the concentration scale where inhibition reaches its midpoint. With `O=C(c1cncc(Nc2ncc3ccn(-c4cc(F)c(CN5CCOCC5)c(F)c4)c3n2)c1)N1CCOCC1` [Example 248, {5-[7-(3,5-Difluoro-4-morpholin-4-ylmethyl-phenyl)-7H-pyrrolo[2,3-d]pyrimidin-2-ylamino]-pyridin-3-yl}-morpholin-4-yl-methanone], the IC50 worked out at 4270 nM in assay [1] and 24 nM on GST-JAK2(808-1132).
On the same counts, the results for `CS(=O)(=O)c1ccc(-n2ccc3cnc(Nc4ccc(C(=O)N5CCOCC5)cc4)nc32)cc1` [Example 30, {4-[7-(4-Methanesulfonyl-phenyl)-7H-pyrrolo[2,3-d]pyrimidin-2-ylamino]-phenyl}-morpholin-4-yl-methanone] are 204 nM and less than 3 nM.
As for `Cc1ccc(Nc2ncc3ccn(-c4cc(F)c(CN5CCOCC5)c(F)c4)c3n2)cc1C` [Example 289, [7-(3,5-Difluoro-4-morpholin-4-ylmethyl-phenyl)-7H-pyrrolo[2,3-d]pyrimidin-2-yl]-(3,4-dimethyl-phenyl)-amine], the half-inhibitory concentration (IC50) in assay [1] is 232 nM; on GST-JAK2(808-1132) it was less than 17 nM.
The corresponding values for `Cc1ccc(Nc2ncc3ccn(-c4cc(F)c(C(=O)N5CCOCC5)c(F)c4)c3n2)cc1Cl` [Example 116, {4-[2-(3-Chloro-4-methyl-phenylamino)-pyrrolo[2,3-d]pyrimidin-7-yl]-2,6-difluoro-phenyl}-morpholin-4-yl-methanone] are 563 nM and 12.5 nM.
On the same counts, the results for `CC(C)Oc1ccc(Nc2ncc3ccn(-c4ccc(CN5CCCNCC5)c(F)c4)c3n2)cc1` [Example 108] are 1680 nM and 6.6 nM.
Turning to `Cn1cc(Nc2ncc3ccn(-c4ccc(C(=O)N5CCOCC5)c(F)c4)c3n2)cn1` [Example 302, {2-Fluoro-4-[2-(1-methyl-1H-pyrazol-4-ylamino)-pyrrolo[2,3-d]pyrimidin-7-yl]-phenyl}-morpholin-4-yl-methanone], the concentration for half-maximal inhibition (IC50) in assay [1] turned out to be 85 nM; at GST-JAK2(808-1132) it was 6.1 nM.
The corresponding values for `O=C(Cc1ccc(-n2ccc3cnc(Nc4ccccc4)nc32)cc1)N1CCOCC1` [Example 143, 1-Morpholin-4-yl-2-[4-(2-phenylamino-pyrrolo[2,3-d]pyrimidin-7-yl)-phenyl]-ethanone] are 195 nM and less than 3 nM.
As for `COCc1ccc(Nc2ncc3ccn(-c4cc(F)c(CN5CCCC5)c(F)c4)c3n2)cc1` [Example 179, [7-(3,5-Difluoro-4-pyrrolidin-1-ylmethyl-phenyl)-7H-pyrrolo[2,3-d]pyrimidin-2-yl]-(4-methoxymethyl-phenyl)-amine], the IC50 in assay [1] was 1520 nM; on GST-JAK2(808-1132), 10.4 nM.
The corresponding values for `CN1CCC(c2ccc(Nc3ncc4ccn(-c5ccc(S(C)(=O)=O)cc5)c4n3)cc2)CC1` [Example 16, [7-(4-Methanesulfonyl-phenyl)-7H-pyrrolo[2,3-d]pyrimidin-2-yl]-[4-(1-methyl-piperidin-4-yl)-phenyl]-amine] are 25 nM and less than 3 nM.
For the compound `COc1ccc(Nc2ncc3ccn(-c4ccc(S(C)(=O)=O)cc4)c3n2)cc1OCCCN(C)C` [Example 27, [3-(3-Dimethylamino-propoxy)-4-methoxy-phenyl]-[7-(4-methanesulfonyl-phenyl)-7H-pyrrolo[2,3-d]pyrimidin-2-yl]-amine], the values for the concentration for half-maximal inhibition (IC50) (in assay [1]; on GST-JAK2(808-1132)) were 85 nM and less than 3 nM, respectively.
The corresponding values for `N#Cc1ccc(Nc2ncc3ccn(-c4ccc(C(=O)N5CCOCC5)cc4)c3n2)cc1` [Example 237, 4-{7-[4-(Morpholine-4-carbonyl)-phenyl]-7H-pyrrolo[2,3-d]pyrimidin-2-ylamino}-benzonitrile] are 2560 nM and 7 nM.
The corresponding values for `O=C(c1c(F)cc(-n2ccc3cnc(Nc4ccc(N5CCNCC5)nc4)nc32)cc1F)N1CCOCC1` [Example 262, {2,6-Difluoro-4-[2-(6-piperazin-1-yl-pyridin-3-ylamino)-pyrrolo[2,3-d]pyrimidin-7-yl]-phenyl}-morpholin-4-yl-methanone] are 285 nM and 4.2 nM.
On to `CS(=O)(=O)c1ccc(-n2ccc3cnc(Nc4ccc(C#N)cc4)nc32)cc1` [Example 95, 4-[7-(4-Methanesulfonyl-phenyl)-7H-pyrrolo[2,3-d]pyrimidin-2-ylamino]-benzonitrile], for which the 50% inhibitory concentration (IC50) in assay [1] was 2360 nM; at GST-JAK2(808-1132), 16.5 nM.
For `CC(C)Oc1ccc(Nc2ncc3ccn(-c4ccc(CC(=O)N5CCOCC5)cc4)c3n2)cc1` [Example 102, 2-{4-[2-(4-Isopropoxy-phenylamino)-pyrrolo[2,3-d]pyrimidin-7-yl]-phenyl}-1-morpholin-4-yl-ethanone], the IC50 in assay [1] is 275 nM; on GST-JAK2(808-1132), less than 3 nM.
For `Cc1ccc(Nc2ncc3ccn(-c4cc(F)c(CN5CCS(=O)(=O)CC5)c(F)c4)c3n2)cc1C` [Example 290, (3,4-Dimethyl-phenyl)-{7-[4-(1,1-dioxido-thiomorpholin-4-ylmethyl)-3,5-difluoro-phenyl]-7H-pyrrolo[2,3-d]pyrimidin-2-yl}-amine], the figures for the IC50 (in assay [1]; at GST-JAK2(808-1132)) were 37 nM and less than 3 nM, respectively.
The corresponding values for `C[C@@H]1CN(c2ccc(Nc3ncc4ccn(-c5cc(F)c(C(=O)N6CCOCC6)c(F)c5)c4n3)cn2)C[C@H](C)N1` [Example 266, (4-{2-[6-(cis-3,5-Dimethyl-piperazin-1-yl)-pyridin-3-ylamino]-pyrrolo[2,3-d]pyrimidin-7-yl}-2,6-difluoro-phenyl)-morpholin-4-yl-methanone] are 150 nM and 8.4 nM.
Regarding `O=C(c1ccc(-n2ccc3cnc(Nc4ccc(F)cc4)nc32)cc1F)N1CCOCC1` [Example 59, {2-Fluoro-4-[2-(4-fluoro-phenylamino)-pyrrolo[2,3-d]pyrimidin-7-yl]-phenyl}-morpholin-4-yl-methanone], the 50% inhibitory concentration (IC50) in assay [1] amounted to 920 nM; on GST-JAK2(808-1132) it was 6.5 nM.
As to `Cc1ccc(Nc2ncc3ccn(-c4ccc(C(=O)NCCN5CCN(C)CC5)c(F)c4)c3n2)cc1C` [Example 298, 4-[2-(3,4-Dimethyl-phenylamino)-pyrrolo[2,3-d]pyrimidin-7-yl]-2-fluoro-N-[2-(4-methyl-piperazin-1-yl)-ethyl]-benzamide], the IC50 in assay [1] turned out to be 2210 nM; on GST-JAK2(808-1132) it was 23 nM.
On the same counts, the results for `O=C(c1c(F)cc(-n2ccc3cnc(Nc4ccc(N5CCNC6(CC6)C5)nc4)nc32)cc1F)N1CCOCC1` [Example 268, (4-{2-[6-(4,7-Diaza-spiro[2.5]oct-7-yl)-pyridin-3-ylamino]-pyrrolo[2,3-d]pyrimidin-7-yl}-2,6-difluoro-phenyl)-morpholin-4-yl-methanone] are 210 nM and 7.8 nM.
Turning to `CS(=O)(=O)c1ccc(-n2ccc3cnc(Nc4ccc(OCCN5CCOCC5)cc4)nc32)cc1` [Example 34, [7-(4-Methanesulfonyl-phenyl)-7H-pyrrolo[2,3-d]pyrimidin-2-yl]-[4-(2-morpholin-4-yl-ethoxy)-phenyl]-amine], the IC50 in assay [1] is 69.5 nM; at GST-JAK2(808-1132) it was less than 3 nM.
On to `CC(C)Oc1ccc(Nc2ncc3ccn(-c4ccc(C(C)O)cc4)c3n2)cc1` (centres unmarked) [Example 114, 1-{4-[2-(4-Isopropoxy-phenylamino)-pyrrolo[2,3-d]pyrimidin-7-yl]-phenyl}-ethanol], for which the concentration for half-maximal inhibition (IC50) in assay [1] turned out to be 202 nM; at GST-JAK2(808-1132), 5.9 nM.
With `O=C(c1ccc(Nc2ncc3ccn(-c4cc(F)c(CN5CCCC5)c(F)c4)c3n2)cc1)N1CCOCC1` [Example 178, {4-[7-(3,5-Difluoro-4-pyrrolidin-1-ylmethyl-phenyl)-7H-pyrrolo[2,3-d]pyrimidin-2-ylamino]-phenyl}-morpholin-4-yl-methanone], the values for the IC50 (in assay [1]; at GST-JAK2(808-1132)) were 790 nM and 9.1 nM, respectively.
The corresponding values for `O=C(c1ccc(-n2ccc3cnc(Nc4cccnc4)nc32)cc1F)N1CCOCC1` [Example 224, {2-Fluoro-4-[2-(pyridin-3-ylamino)-pyrrolo[2,3-d]pyrimidin-7-yl]-phenyl}-morpholin-4-yl-methanone] are 1080 nM and 8.5 nM.
On to `Cc1ccc(Nc2ncc3ccn(-c4ccc(C(=O)N5CCOCC5)c(C)c4)c3n2)cc1C` [Example 294, {4-[2-(3,4-Dimethyl-phenylamino)-pyrrolo[2,3-d]pyrimidin-7-yl]-2-methyl-phenyl}-morpholin-4-yl-methanone], for which the half-inhibitory concentration (IC50) in assay [1] is 415 nM; at GST-JAK2(808-1132) it was less than 3 nM.
For `CC(C)Oc1ccc(Nc2ncc3ccn(-c4ccc(C(C)N5CCOCC5)cc4)c3n2)cc1` (racemic) [Example 193, (4-Isopropoxy-phenyl)-{7-[4-(1-morpholin-4-yl-ethyl)-phenyl]-7H-pyrrolo[2,3-d]pyrimidin-2-yl}-amine], the half-maximal inhibitory concentration (IC50) worked out at 351 nM in assay [1] and 8.4 nM at GST-JAK2(808-1132).
On the same counts, the results for `Cc1ccc(Nc2ncc3ccn(-c4ccc(C[S+](C)[O-])cc4)c3n2)cc1` (centres unmarked) [Example 139, [7-(4-Methanesulfinylmethyl-phenyl)-7H-pyrrolo[2,3-d]pyrimidin-2-yl]-p-tolyl-amine] are 630 nM and 11 nM.
The corresponding values for `CCN1CCN(C(=O)C2(c3ccc(-n4ccc5cnc(Nc6ccc(C)c(C)c6)nc54)cc3)CC2)CC1` [Example 159, (1-{4-[2-(3,4-Dimethyl-phenylamino)-pyrrolo[2,3-d]pyrimidin-7-yl]-phenyl}-cyclopropyl)-(4-ethyl-piperazin-1-yl)-methanone] are 1120 nM and 46.5 nM.
With `Cc1ccc(Nc2ncc3ccn(-c4cc(F)c(CN5CCOCC5(C)C)c(F)c4)c3n2)cc1C` [Example 309, {7-[4-(3,3-Dimethyl-morpholin-4-ylmethyl)-3,5-difluoro-phenyl]-7H-pyrrolo[2,3-d]pyrimidin-2-yl}-(3,4-dimethyl-phenyl)-amine], the half-maximal inhibitory concentration (IC50) in assay [1] is 4160 nM; on GST-JAK2(808-1132), 780 nM.
